From patent publication US9493468B2, “Antifungal 5,6-dihydro-4H-pyrrolo[1,2-a][1,4]benzo-diazepines and 6H-pyrrolo[1,2-a][1,4]benzodiazepines substituted with heterocyclic derivatives” (Janssen Pharmaceutica NV, priority 2011, dated 2016)

Key:
Format in all cases: cell-based
Microsporum canis = test: Antifungal activity in vitro, resazurin growth inhibition: Microsporum canis (B68128); conditions: for IC50: read-out: Inf. B: Microsporum canis B68128 pIC50 (converted)
In short: (§1)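 Broth microdilution: RPMI-1640/L-Gln/2% glucose, MOPS pH 7.0±0.1; 10^3 cfu/well; top concentration 64 μM, 2- or 4-fold steps. Dermatophytes at 27° C., one week or more. Resazurin 0.005% (w/v) added, fluorescence 550/590 nm.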

[1] = tested on: Trichophyton mentagrophytes; test: Antifungal activity in vitro, resazurin growth inhibition: Trichophyton mentagrophytes (B70554); conditions: for IC50: read-out: Inf. G: Trichophyton mentagrophytes B70554 pIC50 (converted)
In short: as §1

Trichophyton rubrum = test: Antifungal activity in vitro, resazurin growth inhibition: Trichophyton rubrum (B68183); conditions: for IC50: read-out: Inf. C: Trichophyton rubrum B68183 pIC50 (converted)
In short: as §1

Scedosporium apiospermum = test: Antifungal activity in vitro, resazurin growth inhibition: Scedosporium apiospermum (IHEM3817); conditions: for IC50: read-out: Inf. H: Scedosporium apiospermum IHEM3817 pIC50 (converted)
Experimental: (§2) The standard susceptibility screen is performed in 96-well plates (U-bottom, Greiner Bio-One). Serial dilutions (2-fold or 4-fold) of 20 mM compound stock solutions are made in 100% DMSO, followed by an intermediate dilution step in water. These serial dilutions (10 μl) are then spotted onto test-plates that can be stored in the dark at 4° C. for a maximum period of 2 weeks. An adequate broad dose-range is included with 64 μM as the highest in-test concentration. The culture medium RPMI-1640 is supplemented with L-glutamine, 2% glucose and buffered with 3-(N-morpholino)-propanesulfonic acid (MOPS) at pH 7.0±0.1.
(§3) The different fungal species/isolates (Table 3a) are cryopreserved and 1/1000 diluted in medium just prior to use. A standard inoculum of 200 μl containing 10^3 colony-forming unit (cfu) is then added to each well. A positive control (100% growth=fungal culture without antifungal) and a negative control (0% growth ═RPMI-MOPS medium) are included on each plate. Optimal incubation time and temperature are dependent on the fungal species and vary from 24 h for yeasts (37° C.) to one week or more for dermatophytes (27° C.). Inhibition of fungal growth is measured after adding 10 μl of 0.005% (w/v) resazurin (Sigma Aldrich) to each well, based on the principle that living cells convert the non-fluorescent blue resazurin into the pink and fluorescent resorufin, allowing fluorimetric reading (λex 550 nm and λem 590 nm) after an additional incubation period (‘resa’ time mentioned in Table 3a).

Scedosporium prolificans = test: Antifungal activity in vitro, resazurin growth inhibition: Scedosporium prolificans (IHEM21157); conditions: for IC50: Lomentospora prolificans, read-out: Inf. I: Scedosporium prolificans IHEM21157 pIC50 (converted)
Experimental: as §2, §3

Sporothrix schenkii = test: Antifungal activity in vitro, resazurin growth inhibition: Sporothrix schenkii (B62482); conditions: for IC50: read-out: Inf. A: Sporothrix schenkii B62482 pIC50 (converted)
In short: (§4)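 Resazurin conversion to fluorescent resorufin (ex 550/em 590 nm) served as the growth readout. Compounds spanned 2- or 4-fold serial dilutions with 64 μM top in-test concentration; inoculum 10^3 cfu per well in MOPS-buffered RPMI-1640 (pH 7.0, 2% glucose). Incubation species-dependent, dermatophytes at 27° C. for ≥1 week.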

Aspergillus fumigatus = test: Antifungal activity in vitro, resazurin growth inhibition: Aspergillus fumigatus (B42928); conditions: for IC50: read-out: Inf. E: Aspergillus fumigatus B42928 pIC50 (converted)
In short: as §4

Candida parapsilosis = test: Antifungal activity in vitro, resazurin growth inhibition: Candida parapsilosis (B66126); conditions: for IC50: Lodderomyces parapsilosis, read-out: Inf. D: Candida parapsilosis B66126 pIC50 (converted)
In short: as §4

Cryptococcus neoformans = test: Antifungal activity in vitro, resazurin growth inhibition: Cryptococcus neoformans (B66663); conditions: for IC50: read-out: Inf. F: Cryptococcus neoformans B66663 pIC50 (converted)
In short: as §4

Rhizopus oryzae = test: Antifungal activity in vitro, resazurin growth inhibition: Rhizopus oryzae (IHEM5223)
Experimental: as §2, §3

Rhizomucor miehei = test: Antifungal activity in vitro, resazurin growth inhibition: Rhizomucor miehei (IHEM13391)
Experimental: as §2, §3

| SMILES | Inf. B: Microsporum canis B68128, pIC50 (Microsporum canis) | Inf. G: Trichophyton mentagrophytes B70554, pIC50 [1] | Inf. C: Trichophyton rubrum B68183, pIC50 (Trichophyton rubrum) | Inf. H: Scedosporium apiospermum IHEM3817, pIC50 (Scedosporium apiospermum) | Inf. I: Scedosporium prolificans IHEM21157, pIC50 (Scedosporium prolificans) | Inf. A: Sporothrix schenkii B62482, pIC50 (Sporothrix schenkii) | Inf. E: Aspergillus fumigatus B42928, pIC50 (Aspergillus fumigatus) | Inf. D: Candida parapsilosis B66126, pIC50 (Candida parapsilosis) | Inf. F: Cryptococcus neoformans B66663, pIC50 (Cryptococcus neoformans) | IC50 (Microsporum canis) [µM] | IC50 [1] [µM] | IC50 (Trichophyton rubrum) [µM] | IC50 (Scedosporium apiospermum) [µM] | IC50 (Scedosporium prolificans) [µM] | IC50 (Sporothrix schenkii) [µM] | IC50 (Aspergillus fumigatus) [µM] | IC50 (Candida parapsilosis) [µM] | IC50 (Cryptococcus neoformans) [µM] | Inf. J: Rhizopus oryzae IHEM5223, pIC50 (Rhizopus oryzae) | Inf. K: Rhizomucor miehei IHEM13391, pIC50 (Rhizomucor miehei) |
| --- | --- | --- | --- | --- | --- | --- | --- | --- | --- | --- | --- | --- | --- | --- | --- | --- | --- | --- | --- | --- |
| Cl.Clc1cccc2c1CNC(c1cc3ccccc3o1)c1cccn1-2 (racemic) [Compound 30] | 6.27 | 6.15 | 6.29 | 4.94 | <4.19 | 4.89 | 6.32 | 5.22 | <4.19 |  |  |  |  |  |  |  |  |  | <4.19 | <4.19 |
| Cc1cccc2c1CNC(c1cc3cc(Cl)ccc3o1)c1cccn1-2.Cl (racemic) [Compound 34] | 6.40 | 6.22 | 6.72 | <4.19 | 5.66 | <4.19 | <4.19 | <4.19 | <4.19 |  |  |  |  |  |  |  |  |  | <4.19 | <4.19 |
| Fc1ccc2oc(C3NCc4c(Cl)cccc4-n4cccc43)cc2c1 (racemic) [Compound 47] | 5.84 | 5.08 | 6.25 | 6.03 | 6.38 | <4.19 | 4.91 | <4.19 | <4.19 |  |  |  |  |  |  |  |  |  | <4.19 | 4.81 |
| Clc1cccc2c1CN=C(c1ccc3nsnc3c1)c1cccn1-2 [Compound 194] | <4.19 | 6.06 | 6.82 |  |  | <4.19 | <4.19 | <4.19 | <4.19 |  |  |  |  |  |  |  |  |  |  |  |
| Clc1cccc2c1CN=C(c1ccncc1)c1cccn1-2 [Compound 198] | 4.00 | <4 | <4 | <4 | <4 | <4 | <4 | <4 | 5.00 |  |  |  |  |  |  |  |  |  |  |  |
| Clc1cccc2c1CN=C(c1cccnc1)c1cccn1-2 [Compound 199] | 4.50 | <4 | 5.00 | <4 | <4 | <4 | <4 | <4 | 5.00 |  |  |  |  |  |  |  |  |  |  |  |
| Clc1ccc2c(c1)-n1cccc1C(c1ccncc1)=NC2 [Compound 203] | 4.50 | <4 | 4.67 | <4 | <4 | <4 | <4 | <4 | <4 |  |  |  |  |  |  |  |  |  |  |  |

The next lines start with results.

| Inf. B: Microsporum canis B68128, pIC50 (Microsporum canis) | Inf. G: Trichophyton mentagrophytes B70554, pIC50 [1] | Inf. C: Trichophyton rubrum B68183, pIC50 (Trichophyton rubrum) | Inf. H: Scedosporium apiospermum IHEM3817, pIC50 (Scedosporium apiospermum) | Inf. I: Scedosporium prolificans IHEM21157, pIC50 (Scedosporium prolificans) | Inf. A: Sporothrix schenkii B62482, pIC50 (Sporothrix schenkii) | Inf. E: Aspergillus fumigatus B42928, pIC50 (Aspergillus fumigatus) | Inf. D: Candida parapsilosis B66126, pIC50 (Candida parapsilosis) | Inf. F: Cryptococcus neoformans B66663, pIC50 (Cryptococcus neoformans) | IC50 (Microsporum canis) [µM] | IC50 [1] [µM] | IC50 (Trichophyton rubrum) [µM] | IC50 (Scedosporium apiospermum) [µM] | IC50 (Scedosporium prolificans) [µM] | IC50 (Sporothrix schenkii) [µM] | IC50 (Aspergillus fumigatus) [µM] | IC50 (Candida parapsilosis) [µM] | IC50 (Cryptococcus neoformans) [µM] | SMILES | Inf. J: Rhizopus oryzae IHEM5223, pIC50 (Rhizopus oryzae) | Inf. K: Rhizomucor miehei IHEM13391, pIC50 (Rhizomucor miehei) |
| --- | --- | --- | --- | --- | --- | --- | --- | --- | --- | --- | --- | --- | --- | --- | --- | --- | --- | --- | --- | --- |
|  | 7.07 |  | <4.19 |  | 5.70 |  | 5.70 | 5.30 |  |  |  |  |  |  |  |  |  | Clc1cccc2c1CN=C(c1cc3ccccc3o1)c1cccn1-2 [Compound 118] | <4.19 | <4.19 |
| <4.19 | 5.03 | 4.29 |  |  | <4.19 | <4.19 | <4.19 | 4.81 |  |  |  |  |  |  |  |  |  | Fc1cccc2c1CN=C(c1ccc3sc(C(F)(F)F)nc3c1)c1cccn1-2 [Compound 192] |  |  |
| <4.19 | <4.19 | <4.19 |  |  | <4.19 | <4.19 | <4.19 | <4.19 |  |  |  |  |  |  |  |  |  | FC(F)(F)c1nc2cc(C3=NCc4c(Cl)cccc4-n4cccc43)ccc2s1 [Compound 193] |  |  |
| <4.19 | <4.19 | 6.34 |  |  | <4.19 | <4.19 | <4.19 | <4.19 |  |  |  |  |  |  |  |  |  | Clc1cccc2c1CN=C(c1ccc3snnc3c1)c1cccn1-2 [Compound 195] |  |  |
| 6.00 | 5.33 | 6.00 | <4 | 5.00 | 5.00 | <4 | 4.00 | 5.00 |  |  |  |  |  |  |  |  |  | Clc1cccc2c1CN=C(c1ccc3ccccc3n1)c1cccn1-2 [Compound 197] |  |  |
|  |  |  |  |  |  |  |  |  | 1 | > 100 | 1 | > 100 | 0.1 | > 100 | > 100 | > 100 | > 100 | Clc1cccc2c1CN=C(c1cnc3ccccc3c1)c1cccn1-2 [Compound 201] |  |  |
|  |  |  |  |  |  |  |  |  | 0.01 | 0.468 | 0.1 | 10 | 0.1 | 1 | 2.14 | > 100 | 10 | c1ccc2c(c1)CN=C(c1cnc3ccccc3c1)c1cccn1-2 [Compound 202] |  |  |
| 4.50 | <4 | 4.67 | <4 | <4 | <4 | <4 | <4 | <4 |  |  |  |  |  |  |  |  |  | Clc1ccc2c(c1)-n1cccc1C(c1ccc3nc[nH]c3c1)=NC2 [Compound 204] |  |  |
| 5.00 | 5.33 | 6.00 | 5.00 | 6.00 | 5.33 | 5.33 | <4 | 5.33 |  |  |  |  |  |  |  |  |  | Clc1ccc2c(c1)-n1cccc1C(c1cnc3ccccc3c1)=NC2 [Compound 206] |  |  |
